Laboratory results published in ChEMBL document CHEMBL5247680, “Design, Synthesis, and Biological Activity of Thioguanine-Modified Pleuromutilin Derivatives” (ACS Med Chem Lett, 2023).
≈ marks a conversion by molar mass, not a printed value.

Legend:
Staphylococcus aureus [1] = assay: Antibacterial activity against Methicillin-resistant Staphylococcus aureus ATCC 33591 assessed as bacterial growth inhibition incubated for 20 to 24 hrs by microbroth serial dilution assay; type: functional; details: time 20-24 hrs
Staphylococcus aureus [2] = assay: Antibacterial activity against Methicillin-resistant Staphylococcus aureus ATCC 43300 assessed as bacterial growth inhibition incubated for 20 to 24 hrs by microbroth serial dilution assay; type: functional; details: time 20-24 hrs
[3] = test system: Staphylococcus epidermidis; assay: Antibacterial activity against Methicillin-resistant Staphylococcus epidermidis ATCC 51625 assessed as bacterial growth inhibition incubated for 20 to 24 hrs by microbroth serial dilution assay; type: functional; details: time 20-24 hrs
[4] = test system: Staphylococcus epidermidis; assay: Antibacterial activity against Methicillin-sensitive Staphylococcus epidermidis ATCC 12228 assessed as bacterial growth inhibition incubated for 20 to 24 hrs by microbroth serial dilution assay; type: functional; details: time 20-24 hrs
Staphylococcus aureus [5] = assay: Antibacterial activity against Staphylococcus aureus ATCC 25923 assessed as bacterial growth inhibition incubated for 20 to 24 hrs by microbroth serial dilution assay; type: functional; details: time 20-24 hrs
[6] = test system: Staphylococcus epidermidis; assay: Selectivity ratio of MBC for antibacterial activity against Methicillin-sensitive Staphylococcus epidermidis […] to MIC for antibacterial activity against Methicillin-sensitive Staphylococcus epidermidis […]; type: functional
Staphylococcus aureus [7] = assay: Selectivity ratio of MBC for antibacterial activity against Staphylococcus aureus to MIC for antibacterial activity against Staphylococcus aureus; type: functional
Staphylococcus aureus [8] = assay: Antibacterial activity against Methicillin-sensitive Staphylococcus aureus ATCC 29213 assessed as bacterial growth inhibition incubated for 20 to 24 hrs by microbroth serial dilution assay
Staphylococcus aureus [9] = assay: Selectivity ratio of MBC for antibacterial activity against Methicillin-sensitive Staphylococcus aureus ATCC 29213 to MIC for antibacterial activity against Methicillin-sensitive Staphylococcus aureus ATCC 29213
Staphylococcus aureus [10] = assay: Selectivity ratio of MBC for antibacterial activity against Methicillin-resistant Staphylococcus aureus ATCC 33591 to MIC for antibacterial activity against Methicillin-resistant Staphylococcus aureus ATCC 33591; type: functional
[11] = test system: Staphylococcus epidermidis; assay: Selectivity ratio of MBC for antibacterial activity against Methicillin-resistant Staphylococcus epidermidis ATCC 51625 to MIC for antibacterial activity against Methicillin-resistant Staphylococcus epidermidis ATCC 51625; type: functional

| SMILES | MIC (Staphylococcus aureus [1]) [µg/mL] | MIC (Staphylococcus aureus [2]) [µg/mL] | MIC [3] [µg/mL] | MIC [4] [µg/mL] | MIC (Staphylococcus aureus [5]) [µg/mL] | Ratio [6] | Ratio (Staphylococcus aureus [7]) | MIC (Staphylococcus aureus [8]) [µg/mL] | Ratio (Staphylococcus aureus [9]) | Ratio (Staphylococcus aureus [10]) | Ratio [11] |
| --- | --- | --- | --- | --- | --- | --- | --- | --- | --- | --- | --- |
| C=C[C@]1(C)C[C@@H](OC(=O)CSc2nc(N)nc3c2ncn3C(=O)Nc2ccccc2OC)[C@@]2(C)C3C(=O)CC[C@@]3(CC[C@H]2C)[C@@H](C)[C@@H]1O (stereo partly drawn) | 0.125 (≈ 0.185 µM) | 0.25 (≈ 0.369 µM) | 0.125 (≈ 0.185 µM) | 0.0156 (≈ 0.023 µM) | 0.25 (≈ 0.369 µM) | >4 | >4 | 0.125 (≈ 0.185 µM) | 2 |  |  |
| C=C[C@]1(C)C[C@@H](OC(=O)CSc2nc(NC(=O)CN3CCCCC3)nc3[nH]cnc23)[C@@]2(C)C3C(=O)CC[C@@]3(CC[C@H]2C)[C@@H](C)[C@@H]1O (stereo partly drawn) | 0.125 (≈ 0.191 µM) | 0.125 (≈ 0.191 µM) | 0.5 (≈ 0.766 µM) | 0.5 (≈ 0.766 µM) | 0.0625 (≈ 0.0957 µM) | >4 | >4 | 0.25 (≈ 0.383 µM) |  |  |  |
| C=C[C@]1(C)C[C@@H](OC(=O)CSc2nc(NC(=O)CN3CCNCC3)nc3[nH]cnc23)[C@@]2(C)C3C(=O)CC[C@@]3(CC[C@H]2C)[C@@H](C)[C@@H]1O (stereo partly drawn) | 32 (≈ 48.9 µM) | 64 (≈ 97.9 µM) | 16 (≈ 24.5 µM) | 4 (≈ 6.12 µM) | 32 (≈ 48.9 µM) | >4 | >4 | 32 (≈ 48.9 µM) |  |  |  |
| C=C[C@]1(C)C[C@@H](OC(=O)CSc2nc(N)nc3c2ncn3C(=O)NCc2ccc(OC)cc2)[C@@]2(C)C3C(=O)CC[C@@]3(CC[C@H]2C)[C@@H](C)[C@@H]1O (stereo partly drawn) | 0.0625 (≈ 0.0905 µM) | 0.0625 (≈ 0.0905 µM) | 0.0312 (≈ 0.0452 µM) | < 0.0312 | 0.125 (≈ 0.181 µM) | >4 | >4 | 0.0625 (≈ 0.0905 µM) |  |  |  |
| C=C[C@]1(C)C[C@@H](OC(=O)CSc2nc(NC(=O)CNC3CCOCC3)nc3[nH]cnc23)[C@@]2(C)C3C(=O)CC[C@@]3(CC[C@H]2C)[C@@H](C)[C@@H]1O (stereo partly drawn) | 0.5 (≈ 0.748 µM) | 16 (≈ 23.9 µM) | 1 (≈ 1.5 µM) | 2 (≈ 2.99 µM) | 0.5 (≈ 0.748 µM) | >4 | >4 | 8 (≈ 12 µM) |  |  |  |
| C=C[C@]1(C)C[C@@H](OC(=O)CSc2nc(N)nc3c2ncn3C(=O)Nc2cccc(NC(=O)OC(C)(C)C)c2)[C@@]2(C)C3C(=O)CC[C@@]3(CC[C@H]2C)[C@@H](C)[C@@H]1O (stereo partly drawn) | 0.25 (≈ 0.328 µM) | 0.25 (≈ 0.328 µM) | 0.125 (≈ 0.164 µM) | 0.0156 (≈ 0.0205 µM) | 0.25 (≈ 0.328 µM) | >4 | >4 | 0.25 (≈ 0.328 µM) | 2 | 4 |  |
| C=C[C@]1(C)C[C@@H](OC(=O)CSc2nc(N)nc3c2ncn3C(=O)Nc2ccccc2)[C@@]2(C)C3C(=O)CC[C@@]3(CC[C@H]2C)[C@@H](C)[C@@H]1O (stereo partly drawn) | 0.125 (≈ 0.193 µM) | 0.0625 (≈ 0.0966 µM) | 0.125 (≈ 0.193 µM) | 0.0156 (≈ 0.0241 µM) | 0.125 (≈ 0.193 µM) | >4 | >4 | 0.125 (≈ 0.193 µM) | 4 |  |  |
| C=C[C@]1(C)C[C@@H](OC(=O)CSc2nc(NC(=O)CN3CCN(C)CC3)nc3[nH]cnc23)[C@@]2(C)C3C(=O)CC[C@@]3(CC[C@H]2C)[C@@H](C)[C@@H]1O (stereo partly drawn) | 16 (≈ 24 µM) | 32 (≈ 47.9 µM) | 1 (≈ 1.5 µM) | 4 (≈ 5.99 µM) | 16 (≈ 24 µM) | >4 | >4 | 8 (≈ 12 µM) | 4 |  |  |
| C=C[C@]1(C)C[C@@H](OC(=O)CSc2nc(N)nc3c2ncn3C(=O)c2ccc(OC)cc2)[C@@]2(C)C3C(=O)CC[C@@]3(CC[C@H]2C)[C@@H](C)[C@@H]1O (stereo partly drawn) | 0.5 (≈ 0.755 µM) | 0.125 (≈ 0.189 µM) | 0.25 (≈ 0.378 µM) | < 0.0078 | 0.25 (≈ 0.378 µM) | >4 | >4 | 0.5 (≈ 0.755 µM) |  |  | 4 |
| C=C[C@]1(C)C[C@@H](OC(=O)CSc2nc(N)nc3c2ncn3C(=O)c2ccc(C)cc2)[C@@]2(C)C3C(=O)CC[C@@]3(CC[C@H]2C)[C@@H](C)[C@@H]1O (stereo partly drawn) | 0.125 (≈ 0.194 µM) | 0.25 (≈ 0.387 µM) | 0.125 (≈ 0.194 µM) | 0.0078 (≈ 0.0121 µM) | 0.125 (≈ 0.194 µM) | >4 | >4 | 0.125 (≈ 0.194 µM) |  |  |  |
| C=C[C@]1(C)C[C@@H](OC(=O)CSc2nc(N)nc3c2ncn3C(=O)NCc2cccc([N+](=O)[O-])c2)[C@@]2(C)C3C(=O)CC[C@@]3(CC[C@H]2C)[C@@H](C)[C@@H]1O (stereo partly drawn) | 0.0312 (≈ 0.0443 µM) | 0.0625 (≈ 0.0885 µM) | 0.0625 (≈ 0.0885 µM) | < 0.0078 | 0.0625 (≈ 0.0885 µM) | >4 | >4 | 0.0625 (≈ 0.0885 µM) | 4 |  |  |
| C=C[C@]1(C)C[C@@H](OC(=O)CSc2nc(N)nc3c2ncn3C(=O)OC)[C@@]2(C)C3C(=O)CC[C@@]3(CC[C@H]2C)[C@@H](C)[C@@H]1O (stereo partly drawn) | 0.125 (≈ 0.213 µM) | 0.125 (≈ 0.213 µM) | 0.125 (≈ 0.213 µM) | 0.0625 (≈ 0.107 µM) | 0.125 (≈ 0.213 µM) | >4 | >4 | 0.5 (≈ 0.854 µM) |  |  |  |
